Results from patent publication US20250074912A1, “IMPROVED PROCESS FOR THE PREPARATION OF UPADACITINIB” (MSN LABORATORIES PRIVATE LIMITED, R&D CENTER, priority 2022, published 2025).

Assay: Storage stability of amorphous Upadacitinib
Assay type: physicochemical

**Q.** With `CC[C@@H]1CN(C(=O)NCC(F)(F)F)C[C@@H]1c1cnc2cnc3[nH]ccc3n12` [Amorphous form of Upadacitinib, (3S,4R)-3-ethyl-4-(3H-imidazo[1,2-a]pyrrolo[2,3-e]pyrazin-8-yl)-N-(2,2,2-trifluoroethyl)pyrrolidine-1-carboxamide] as the compound, how does the stability on storage (12 months at 25° C./60+5% relative humidity) read?
**A.** The stability on storage was “stable”.

**Q.** And the stability on storage (12 months at 40±2° C./75±5% relative humidity)?
**A.** The stability on storage was “stable”.
